{"source": "paper PMC10865409", "about": "“The prFMNH2-binding chaperone LpdD assists UbiD decarboxylase activation” (The Journal of Biological Chemistry, 2024)", "molecules": {"B1": {"name": "LpdD (lp_0272) from Lactobacillus plantarum, His-tagged (natural protein)", "chain": "MATFTTEQAGYQMQAILQVIGYDLLIVVTGGTNPHIGDVTTLTASTVPETVKFPSHDGRFHKDNFISERMAKRIQRYLAGSCTITAGIHVNQITKAQIAAAAPMTDDLSRQIISWLQAHPVQAEKPEYYGQDEQPR", "notes": "LpdD, small protein associated with the UbiD-type gallate decarboxylase LpdC, Lactobacillus plantarum, locus lp_0272; E. coli codon-optimized synthetic gene; N- and C-terminally His-tagged LpdD were both made (pET28a and pET30a); the best crystals came from the N-terminally tagged protein; The pull-down says only 'His-tagged LpdD'; The tag is detected by His-Western blot in the pull-down; also …"}, "B2": {"name": "LpdD H35A variant (natural protein, Lactobacillus plantarum)", "chain": "B1 chain with H35A", "notes": "LpdD, Lactobacillus plantarum, locus lp_0272, with H35A made by site-directed mutagenesis of the WT construct; source: E. coli BL21(DE3), purified"}}, "key": {"[1]": {"molecular_target": "T1, UbiD (Strep-tagged apo-UbiD) (Escherichia coli, UniProt P0AAB4)", "T1 construct": "Strep-tagged, purified apo-UbiD reconstituted with LpdD-containing E. coli lysate and prFMNH2; 4-hydroxybenzoate row is endogenous UbiD of E. coli BL21(DE3)", "T1 sequence (P0AAB4 1-497)": "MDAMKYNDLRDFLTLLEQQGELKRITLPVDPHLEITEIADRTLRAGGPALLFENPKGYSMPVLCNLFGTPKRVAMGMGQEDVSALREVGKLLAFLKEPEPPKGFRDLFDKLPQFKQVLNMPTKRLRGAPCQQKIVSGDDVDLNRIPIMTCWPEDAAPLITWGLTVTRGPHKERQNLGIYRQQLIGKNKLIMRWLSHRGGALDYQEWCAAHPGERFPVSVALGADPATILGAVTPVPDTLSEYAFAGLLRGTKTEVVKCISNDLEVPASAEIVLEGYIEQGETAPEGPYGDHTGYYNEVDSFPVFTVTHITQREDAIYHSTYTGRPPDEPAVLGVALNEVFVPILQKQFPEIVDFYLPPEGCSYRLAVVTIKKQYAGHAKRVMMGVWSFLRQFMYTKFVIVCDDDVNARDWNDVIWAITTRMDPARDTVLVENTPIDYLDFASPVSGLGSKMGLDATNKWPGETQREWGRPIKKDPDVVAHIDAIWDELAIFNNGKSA", "experiment": "decarboxylation by HPLC; Strep-UbiD plus LpdD-containing lysate", "type": "biochemical", "details": "anaerobic; LpdD lysate supernatant with or without prFMNH2; purified UbiD alone inactive"}, "LpdD [2]": {"molecular_target": "T2, LpdD (Lactiplantibacillus plantarum, UniProt F9UT68, H61A)", "T2 construct": "full length, N-terminal hexahistidine tag (best crystals; C-terminal also made), E. coli codon-optimized gene, E. coli BL21(DE3), Ni-NTA; dimer", "T2 sequence (F9UT68 whole entry H61A)": "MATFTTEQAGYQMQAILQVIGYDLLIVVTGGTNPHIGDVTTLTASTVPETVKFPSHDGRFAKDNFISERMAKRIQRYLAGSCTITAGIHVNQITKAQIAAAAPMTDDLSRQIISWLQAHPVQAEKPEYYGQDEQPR", "experiment": "UV-Vis after in vitro reconstitution and desalting", "type": "binding", "details": "anaerobic, 2:1 prFMNH2:protein, 50 mM Tris pH 7.5, 200 mM NaCl, 1 mM MnCl2"}, "LpdD [3]": {"molecular_target": "T3, LpdD (Lactiplantibacillus plantarum, UniProt F9UT68)", "T3 construct": "full length, N-terminal hexahistidine tag (best crystals; C-terminal also made), E. coli codon-optimized gene, E. coli BL21(DE3), Ni-NTA; dimer", "T3 sequence (F9UT68 1-136)": "B1 chain", "experiment": "UV-Vis after in vitro reconstitution and desalting", "type": "binding", "details": "anaerobic, 2:1 prFMNH2:protein, 50 mM Tris pH 7.5, 200 mM NaCl, with or without MnCl2"}, "[4]": {"molecular_target": "T1, UbiD (Strep-tagged apo-UbiD)", "experiment": "ESI-MS of reconstituted Strep-UbiD", "type": "binding", "details": "reconstituted with LpdD-containing cell lysate and prFMNH2"}, "[5]": {"molecular_target": "T4, Strep-tagged Escherichia coli UbiD (Escherichia coli, UniProt P0AAB4 1-497)", "T4 construct": "UbiD, prFMN-dependent decarboxylase of ubiquinone biosynthesis, Escherichia coli; also called Strep-UbiD; Strep-apo-UbiD; source: purified", "T4 sequence (looked up)": "T1 sequence (P0AAB4 1-497)", "experiment": "pull-down; Strep-tagged UbiD and His-tagged LpdD mixed in an equimolar ratio, pulled down with streptavidin beads under anaerobic conditions; SDS-PAGE and His-Western blot", "details": "both partners purified"}, "[6]": {"molecular_target": "the molecule itself", "experiment": "crystal structure; N-terminally His-tagged LpdD, ca 15 mg/ml, 1.6 M magnesium sulfate heptahydrate, 0.1 M Mes pH 6.5, 20 °C; space group I222, two monomers in the asymmetric unit; dimer built by crystallographic symmetry"}, "[7]": {"molecular_target": "the molecule itself", "experiment": "crystal structure; LpdD H35A, space group P4_(1)2_(1)2, one molecule in the asymmetric unit, distinct crystallization conditions; dimer built by crystallographic symmetry"}}, "note": "Changes are numbered by the printed parent chain. Numbers in names are those of the source."}
{"molecule": "O=C(O)c1ccc(O)c(O)c1", "note": "[compound 2, 3,4-dihydroxy-benzoic acid]", "values": [{"measurement": "decarboxylation by HPLC; Strep-UbiD plus LpdD-containing lysate", "setting": "[1]", "value": "activity was observed when LpdD-containing cell lysate supernatant was included in the assays"}]}
{"molecule": "Cc1cc2c3c(c1C)C(C)(C)CCN3c1c([nH]c(=O)[nH]c1=O)N2C[C@H](O)[C@H](O)[C@H](O)COP(=O)(O)O", "note": "[prFMNH2]", "values": [{"measurement": "UV-Vis after in vitro reconstitution and desalting", "setting": "LpdD [2]", "value": "purified H61A variant reveals this mutation does not abolish prFMNH2 binding"}, {"measurement": "UV-Vis after in vitro reconstitution and desalting", "setting": "LpdD [3]", "value": "In vitro reconstitution of purified apo-LpdD with prFMNH2 results in similar spectral features"}]}
{"molecule": "Cc1cc2c3c(c1C)C(C)(C)CC=[N+]3c1c(nc([O-])[nH]c1=O)N2C[C@H](O)[C@H](O)[C@H](O)COP(=O)(O)O", "note": "[prFMN^iminium]", "values": [{"measurement": "ESI-MS of reconstituted Strep-UbiD", "setting": "[4]", "value": "reconstituted Strep-UbiD reveals the presence of catalytically relevant prFMN^iminium species"}]}
{"molecule": "B1", "values": [{"measurement": "binding result", "setting": "[5]", "value": "binds"}, {"measurement": "stoichiometry N", "setting": "[6]", "value": 2}]}
{"molecule": "B2", "values": [{"measurement": "stoichiometry N", "setting": "[7]", "value": 2}]}
